# Calls of active or inactive are those of the source. The rule behind the calls is not given here.
# Assays:
# [1] = Ratio of CC30 for human PBL cells to EC90 for HIV1
# [2] = system: Human immunodeficiency virus type 1 reverse transcriptase (Human immunodeficiency virus 1), Q72547 [F227L]; assay: Inhibition of HIV1 histidine-tagged reverse transcriptase F227L mutant activity by primer extension assay
# [3] = target: Acetylcholinesterase (Homo sapiens) (UniProt P22303); assay: Inhibition of human acetylcholinesterase at up to 10 uM
# [4] = system: Human immunodeficiency virus 1; assay type: functional, organism-based; conditions: NL4-3, HeLaP4
# [5] = target: 5-hydroxytryptamine receptor 1A (Homo sapiens) (UniProt P08908); assay: Inhibition of human 5-HT1A receptor at up to 10 uM
# [6] = target: 5-hydroxytryptamine receptor 1B (Homo sapiens) (UniProt P28222); assay: Inhibition of human 5-HT1B receptor at up to 10 uM
# [7] = system: Human immunodeficiency virus 1; assay: Antiviral activity against HIV1 NL4-3 harboring reverse transcriptase Y181I mutant infected in human HeLaP4 cells assessed as inhibition of viral replication after 5 days by beta-galactosidase reporter assay; assay type: functional, organism-based
# [8] = target: Adrenergic receptor alpha-2 (Homo sapiens) (UniProt P08913+P18825+P18089); assay: Inhibition of human adrenergic alpha2 receptor at up to 10 uM
# [9] = target: 5-hydroxytryptamine receptor 2A (Homo sapiens) (UniProt P28223); assay: Inhibition of human 5-HT2A receptor at up to 10 uM
# [10] = system: Human immunodeficiency virus 1; assay: Ratio of EC50 for wild type HIV1 NL4-3 to EC50 for HIV1 NL4-3 harboring reverse transcriptase Y181I, Y188L mutant; assay type: functional
# Homo sapiens [11] = species: Homo sapiens; assay: Inhibition of human tyrosine hydroxylase at up to 10 uM
# [12] = system: Human immunodeficiency virus type 1 reverse transcriptase (Human immunodeficiency virus 1), Q72547 [K103N]; assay: Inhibition of HIV1 histidine-tagged reverse transcriptase K103N mutant activity by primer extension assay
# HepG2 = assay: Inhibition of DNA synthesis in human HepG2 cells assessed as [3H]-thymidine incorporation at up to 10 uM; assay type: functional, cell-based
# Homo sapiens [13] = species: Homo sapiens; assay: Inhibition of human L-type calcium channel dihydropyridine binding site at up to 10 uM
# [14] = system: Human immunodeficiency virus 1; assay type: functional, organism-based; conditions: NL4-3, HeLaP4; remark: listed apart in the source
# [15] = target: Adrenergic receptor alpha-1 (Homo sapiens) (UniProt P35348+P25100+P35368); assay: Inhibition of human adrenergic alpha1 receptor at up to 10 uM
# [16] = system: Human immunodeficiency virus 1; assay: Antiviral activity against HIV1 NL4-3 harboring reverse transcriptase L100I mutant infected in human HeLaP4 cells assessed as inhibition of viral replication after 5 days by beta-galactosidase reporter assay; assay type: functional, organism-based
# [17] = target: Beta-2 adrenergic receptor (Homo sapiens) (UniProt P07550); assay: Inhibition of human adrenergic beta2 receptor at up to 10 uM
# [18] = target: Amine oxidase [flavin-containing] B (Homo sapiens, UniProt P27338); assay: Inhibition of human MAO-B at up to 10 uM
# [19] = system: Human immunodeficiency virus type 1 reverse transcriptase (Human immunodeficiency virus 1), Q72547 [K101E]; assay: Inhibition of HIV1 histidine-tagged reverse transcriptase K101E mutant activity by primer extension assay
# [20] = system: Human immunodeficiency virus 1; assay: Antiviral activity against HIV1 NL4-3 harboring reverse transcriptase E233V mutant infected in human HeLaP4 cells assessed as inhibition of viral replication after 5 days by beta-galactosidase reporter assay; assay type: functional, organism-based
# [21] = system: Human immunodeficiency virus type 1 reverse transcriptase (Human immunodeficiency virus 1), Q72547 [E138K]; assay: Inhibition of HIV1 histidine-tagged reverse transcriptase E138K mutant activity by primer extension assay
# [22] = system: Human immunodeficiency virus type 1 reverse transcriptase (Human immunodeficiency virus 1), Q72547 [K103N]; assay: Binding affinity to HIV1 HXB2 reverse transcriptase K103N mutant by protein X-ray crystallography analysis
# [23] = system: Human immunodeficiency virus 1; assay: Ratio of EC50 for wild type HIV1 NL4-3 to EC50 for HIV1 NL4-3 harboring reverse transcriptase M184V mutant; assay type: functional
# [24] = system: Human immunodeficiency virus 1; assay: Antiviral activity against HIV1 NL4-3 harboring reverse transcriptase Y188C mutant infected in human HeLaP4 cells assessed as inhibition of viral replication after 5 days by beta-galactosidase reporter assay; assay type: functional, organism-based
# PBMC = assay: Cytotoxicity against human PBMC cells by aqueous nonradioactive cell proliferation assay; assay type: cell-based
# [25] = system: Human immunodeficiency virus 1; assay: Ratio of EC50 for wild type HIV1 NL4-3 to EC50 for HIV1 NL4-3 harboring reverse transcriptase E233V mutant; assay type: functional
# Homo sapiens [26] = species: Homo sapiens; assay: Inhibition of human Phosphodiesterase 3 at up to 10 uM
# [27] = system: Human immunodeficiency virus 1; assay: Antiviral activity against wild type HIV1 NL4-3 infected in human HeLaP4 cells assessed as inhibition of viral replication after 5 days by beta-galactosidase reporter assay; assay type: functional, organism-based; conditions: Human immunodeficiency virus 1, NL4-3, HeLaP4, 120 h
# [28] = system: Human immunodeficiency virus 1; assay: Ratio of EC50 for wild type HIV1 NL4-3 to EC50 for HIV1 NL4-3 harboring reverse transcriptase V106A mutant; assay type: functional
# [29] = system: Human immunodeficiency virus 1; assay: Ratio of EC50 for wild type HIV1 NL4-3 to EC50 for HIV1 NL4-3 harboring reverse transcriptase L100I mutant; assay type: functional
# [30] = system: Human immunodeficiency virus 1; assay: Antiviral activity against HIV1 NL4-3 harboring reverse transcriptase K103N mutant infected in human HeLaP4 cells assessed as inhibition of viral replication after 5 days by beta-galactosidase reporter assay; assay type: functional, organism-based; conditions: Human immunodeficiency virus 1, NL4-3, HeLaP4, 120 h
# [31] = system: Human immunodeficiency virus type 1 reverse transcriptase (Human immunodeficiency virus 1), Q72547 [Y181I]; assay: Inhibition of HIV1 histidine-tagged reverse transcriptase Y181I mutant activity by primer extension assay
# [32] = system: Human immunodeficiency virus 1; assay: Ratio of EC50 for wild type HIV1 NL4-3 to EC50 for HIV1 NL4-3 harboring reverse transcriptase Y188C mutant; assay type: functional
# [33] = target: Histamine H1 receptor (Homo sapiens) (UniProt P35367); assay: Inhibition of human histamine H1 receptor at up to 10 uM
# [34] = Ratio of CC30 for human HeLaP4 cells to EC90 for HIV1
# [35] = target: D(1A) dopamine receptor (Homo sapiens) (UniProt P21728); assay: Inhibition of human dopamine D1 receptor at up to 10 uM
# [36] = system: Human immunodeficiency virus 1; assay: Antiviral activity against HIV1 NL4-3 harboring reverse transcriptase P236L mutant infected in human HeLaP4 cells assessed as inhibition of viral replication after 5 days by beta-galactosidase reporter assay; assay type: functional, organism-based
# [37] = target: D(2) dopamine receptor (Homo sapiens) (UniProt P14416); assay: Inhibition of human dopamine D2 receptor at up to 10 uM
# [38] = system: Human immunodeficiency virus type 1 reverse transcriptase (Human immunodeficiency virus 1), Q72547 [M184V]; assay: Inhibition of HIV1 histidine-tagged reverse transcriptase M184V mutant activity by primer extension assay
# [39] = system: Human immunodeficiency virus 1; assay: Antiviral activity against HIV1 NL4-3 harboring reverse transcriptase V108I, E138K mutant infected in human SupT1 cells derived from 9 viral passages with lersivirine assessed as inhibition of viral replication after 21 days relative to drug sensitive HIV1 NL4-3; assay type: functional, SUP-T1
# [40] = system: Human immunodeficiency virus 1; assay: Antiviral activity against HIV1 NL4-3 harboring reverse transcriptase E138K mutant infected in human HeLaP4 cells assessed as inhibition of viral replication after 5 days by beta-galactosidase reporter assay; assay type: functional, organism-based
# D(1A) dopamine receptor (Homo sapiens), sequence (P21728 whole entry): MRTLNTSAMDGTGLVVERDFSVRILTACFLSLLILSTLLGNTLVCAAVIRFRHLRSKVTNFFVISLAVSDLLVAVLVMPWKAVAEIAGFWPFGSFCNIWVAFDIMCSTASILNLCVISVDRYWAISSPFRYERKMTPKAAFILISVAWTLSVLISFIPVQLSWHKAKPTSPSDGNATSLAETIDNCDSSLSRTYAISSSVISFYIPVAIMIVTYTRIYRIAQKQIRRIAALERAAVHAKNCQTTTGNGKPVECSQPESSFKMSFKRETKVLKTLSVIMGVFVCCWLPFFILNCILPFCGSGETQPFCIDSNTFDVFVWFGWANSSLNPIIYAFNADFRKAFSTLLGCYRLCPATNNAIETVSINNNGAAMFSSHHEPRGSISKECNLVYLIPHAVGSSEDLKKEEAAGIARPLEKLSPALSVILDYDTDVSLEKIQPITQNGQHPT
# D(2) dopamine receptor (Homo sapiens), sequence (P14416 whole entry): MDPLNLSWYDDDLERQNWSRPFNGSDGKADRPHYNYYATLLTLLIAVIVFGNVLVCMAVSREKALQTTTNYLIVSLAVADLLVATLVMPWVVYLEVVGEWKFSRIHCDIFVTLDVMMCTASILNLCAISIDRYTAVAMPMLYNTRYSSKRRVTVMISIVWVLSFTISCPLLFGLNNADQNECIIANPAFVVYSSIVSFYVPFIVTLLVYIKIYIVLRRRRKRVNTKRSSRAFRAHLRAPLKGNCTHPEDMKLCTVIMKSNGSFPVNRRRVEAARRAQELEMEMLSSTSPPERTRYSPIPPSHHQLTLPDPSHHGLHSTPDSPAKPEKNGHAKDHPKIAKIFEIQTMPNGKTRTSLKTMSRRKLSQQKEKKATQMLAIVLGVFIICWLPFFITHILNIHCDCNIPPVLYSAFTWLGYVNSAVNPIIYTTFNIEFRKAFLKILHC
# 5-hydroxytryptamine receptor 1B (Homo sapiens), sequence (P28222 whole entry): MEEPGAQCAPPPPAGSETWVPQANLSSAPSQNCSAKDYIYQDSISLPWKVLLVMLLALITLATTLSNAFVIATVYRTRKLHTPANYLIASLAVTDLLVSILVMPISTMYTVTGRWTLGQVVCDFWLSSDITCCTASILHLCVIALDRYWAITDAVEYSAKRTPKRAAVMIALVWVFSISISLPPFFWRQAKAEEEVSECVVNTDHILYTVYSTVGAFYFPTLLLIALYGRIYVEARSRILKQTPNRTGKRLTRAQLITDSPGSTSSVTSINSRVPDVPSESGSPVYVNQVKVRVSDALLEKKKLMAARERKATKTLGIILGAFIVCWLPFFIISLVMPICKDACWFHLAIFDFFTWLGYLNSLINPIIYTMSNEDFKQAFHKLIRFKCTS
# Acetylcholinesterase (Homo sapiens), sequence (P22303 whole entry): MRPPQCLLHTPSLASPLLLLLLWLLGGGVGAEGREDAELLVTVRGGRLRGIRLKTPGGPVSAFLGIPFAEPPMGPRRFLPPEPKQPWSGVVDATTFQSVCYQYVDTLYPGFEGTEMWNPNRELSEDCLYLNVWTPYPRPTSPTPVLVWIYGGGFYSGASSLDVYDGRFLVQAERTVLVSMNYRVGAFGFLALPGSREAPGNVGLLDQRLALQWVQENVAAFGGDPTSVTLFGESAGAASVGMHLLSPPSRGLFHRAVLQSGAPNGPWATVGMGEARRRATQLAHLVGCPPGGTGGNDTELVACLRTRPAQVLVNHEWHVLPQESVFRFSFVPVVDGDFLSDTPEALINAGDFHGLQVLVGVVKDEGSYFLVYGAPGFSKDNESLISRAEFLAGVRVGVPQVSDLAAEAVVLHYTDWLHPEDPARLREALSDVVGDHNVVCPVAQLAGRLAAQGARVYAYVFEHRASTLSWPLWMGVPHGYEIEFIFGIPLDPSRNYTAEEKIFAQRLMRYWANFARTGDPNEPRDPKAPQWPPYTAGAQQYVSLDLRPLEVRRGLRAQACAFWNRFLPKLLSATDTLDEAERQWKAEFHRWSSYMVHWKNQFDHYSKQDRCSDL
# Beta-2 adrenergic receptor (Homo sapiens), sequence (P07550 whole entry, looked up): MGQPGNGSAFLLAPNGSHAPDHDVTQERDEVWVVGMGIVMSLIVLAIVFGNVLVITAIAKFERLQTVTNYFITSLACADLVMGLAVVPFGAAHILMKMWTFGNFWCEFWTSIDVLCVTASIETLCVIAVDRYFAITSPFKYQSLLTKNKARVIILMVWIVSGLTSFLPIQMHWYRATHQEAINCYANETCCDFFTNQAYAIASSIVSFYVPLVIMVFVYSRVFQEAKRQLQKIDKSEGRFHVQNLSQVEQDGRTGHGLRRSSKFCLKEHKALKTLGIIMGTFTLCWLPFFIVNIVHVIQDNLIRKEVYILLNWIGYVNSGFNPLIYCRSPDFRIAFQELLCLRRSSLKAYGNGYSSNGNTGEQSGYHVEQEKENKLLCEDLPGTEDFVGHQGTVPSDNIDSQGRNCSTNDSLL
# 5-hydroxytryptamine receptor 1A (Homo sapiens), sequence (P08908 whole entry): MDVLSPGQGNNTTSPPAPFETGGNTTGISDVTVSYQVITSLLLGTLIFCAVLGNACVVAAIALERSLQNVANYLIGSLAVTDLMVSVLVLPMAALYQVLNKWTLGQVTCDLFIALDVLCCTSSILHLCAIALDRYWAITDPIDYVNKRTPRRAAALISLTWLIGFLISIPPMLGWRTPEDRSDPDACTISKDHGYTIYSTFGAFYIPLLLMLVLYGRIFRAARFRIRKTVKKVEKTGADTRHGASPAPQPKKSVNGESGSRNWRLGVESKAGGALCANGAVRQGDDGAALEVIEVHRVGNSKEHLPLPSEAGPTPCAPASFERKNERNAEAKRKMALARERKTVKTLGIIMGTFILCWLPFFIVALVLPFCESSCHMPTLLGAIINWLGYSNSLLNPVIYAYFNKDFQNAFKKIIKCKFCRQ
# Histamine H1 receptor (Homo sapiens), sequence (P35367 whole entry): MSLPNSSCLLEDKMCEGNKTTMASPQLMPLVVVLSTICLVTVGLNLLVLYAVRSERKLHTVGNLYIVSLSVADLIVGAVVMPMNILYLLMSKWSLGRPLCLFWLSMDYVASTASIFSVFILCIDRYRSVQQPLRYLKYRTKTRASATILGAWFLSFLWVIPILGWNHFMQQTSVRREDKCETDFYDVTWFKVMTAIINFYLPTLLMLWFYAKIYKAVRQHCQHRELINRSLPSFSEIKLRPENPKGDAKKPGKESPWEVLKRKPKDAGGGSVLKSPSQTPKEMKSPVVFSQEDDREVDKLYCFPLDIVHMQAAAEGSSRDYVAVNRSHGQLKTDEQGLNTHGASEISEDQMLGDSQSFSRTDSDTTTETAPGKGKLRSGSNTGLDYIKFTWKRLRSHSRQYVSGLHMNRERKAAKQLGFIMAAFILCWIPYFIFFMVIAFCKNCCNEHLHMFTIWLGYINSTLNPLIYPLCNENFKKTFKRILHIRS
# 5-hydroxytryptamine receptor 2A (Homo sapiens), sequence (P28223 whole entry): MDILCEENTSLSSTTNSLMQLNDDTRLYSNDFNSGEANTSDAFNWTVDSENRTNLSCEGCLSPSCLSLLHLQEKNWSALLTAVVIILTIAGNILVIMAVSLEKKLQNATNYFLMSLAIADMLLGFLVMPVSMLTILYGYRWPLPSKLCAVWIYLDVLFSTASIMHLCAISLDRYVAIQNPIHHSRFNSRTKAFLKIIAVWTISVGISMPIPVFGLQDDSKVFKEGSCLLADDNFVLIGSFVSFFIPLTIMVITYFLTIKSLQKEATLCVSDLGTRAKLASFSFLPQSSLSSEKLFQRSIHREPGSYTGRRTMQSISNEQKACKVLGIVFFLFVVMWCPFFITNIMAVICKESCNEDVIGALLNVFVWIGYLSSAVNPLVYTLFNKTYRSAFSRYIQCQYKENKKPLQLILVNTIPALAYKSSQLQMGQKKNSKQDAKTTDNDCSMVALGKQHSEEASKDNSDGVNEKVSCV
# Amine oxidase [flavin-containing] B, sequence (P27338 whole entry): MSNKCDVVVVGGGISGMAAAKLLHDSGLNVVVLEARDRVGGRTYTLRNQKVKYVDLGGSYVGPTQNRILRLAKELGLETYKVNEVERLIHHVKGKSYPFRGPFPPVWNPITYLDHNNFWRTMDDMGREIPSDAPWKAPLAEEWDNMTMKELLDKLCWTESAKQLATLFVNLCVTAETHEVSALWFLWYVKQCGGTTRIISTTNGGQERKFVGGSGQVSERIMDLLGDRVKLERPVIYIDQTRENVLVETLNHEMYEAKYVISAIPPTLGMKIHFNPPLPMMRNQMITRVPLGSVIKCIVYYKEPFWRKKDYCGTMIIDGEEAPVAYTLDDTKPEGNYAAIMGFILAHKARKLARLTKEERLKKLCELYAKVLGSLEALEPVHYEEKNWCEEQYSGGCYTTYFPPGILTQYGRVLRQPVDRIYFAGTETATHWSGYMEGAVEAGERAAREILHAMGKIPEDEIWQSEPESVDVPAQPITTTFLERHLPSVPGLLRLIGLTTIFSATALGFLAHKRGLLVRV
compound,measurement,setting,value
CCc1nn(CCO)c(CC)c1Oc1cc(C#N)cc(C#N)c1 [LERSIVIRINE],Ratio,[1],9818
same,inhibition,[2],Active
same,inhibition,[3],inactive
same,inhibition,[4],Active
same,inhibition,[5],inactive
same,inhibition,[6],inactive
same,inhibition,[7],Active
same,inhibition,[8],inactive
same,inhibition,[9],inactive
same,Ratio EC50,[10],65
same,inhibition,Homo sapiens [11],inactive
same,inhibition,[12],Active
same,inhibition,HepG2,inactive
same,inhibition,Homo sapiens [13],inactive
same,inhibition,[14],Active
same,inhibition,[15],inactive
same,inhibition,[16],Active
same,inhibition,[17],inactive
same,inhibition (INH),[18],Not Active
same,inhibition,[19],Active
same,inhibition,[20],Active
same,inhibition,[21],Active
same,Activity,[22],Active
same,Ratio EC50,[23],10
same,inhibition,[24],Active
same,CC30,PBMC,96900 nM
same,Ratio EC50,[25],10
same,inhibition,Homo sapiens [26],inactive
same,EC50,[27],3.96 nM
same,Ratio EC50,[28],10
same,Ratio EC50,[29],10
same,EC50,[30],7.05 nM
same,inhibition,[31],Active
same,Ratio EC50,[32],10
same,inhibition,[33],inactive
same,Ratio,[34],>7092
same,inhibition,[35],inactive
same,inhibition,[36],Active
same,inhibition,[37],inactive
same,inhibition,[38],Active
same,fold change (FC),[39],14
same,inhibition,[40],Active
